According to ChEMBL document CHEMBL4842385, “Indirubin Derivatives as Dual Inhibitors Targeting Cyclin-Dependent Kinase and Histone Deacetylase for Treating Cancer” (J Med Chem, 2021):
The source made the active and inactive calls. The calls are words filed in the database; no cut-off is given here.

How the values were obtained:
[1] = target: T1, Histone deacetylase 11 (Homo sapiens, UniProt Q96DB2); assay: Inhibition of recombinant human HDAC11 measured after 30 mins by fluorescence microplate reader assay
T1 sequence (Q96DB2 whole entry): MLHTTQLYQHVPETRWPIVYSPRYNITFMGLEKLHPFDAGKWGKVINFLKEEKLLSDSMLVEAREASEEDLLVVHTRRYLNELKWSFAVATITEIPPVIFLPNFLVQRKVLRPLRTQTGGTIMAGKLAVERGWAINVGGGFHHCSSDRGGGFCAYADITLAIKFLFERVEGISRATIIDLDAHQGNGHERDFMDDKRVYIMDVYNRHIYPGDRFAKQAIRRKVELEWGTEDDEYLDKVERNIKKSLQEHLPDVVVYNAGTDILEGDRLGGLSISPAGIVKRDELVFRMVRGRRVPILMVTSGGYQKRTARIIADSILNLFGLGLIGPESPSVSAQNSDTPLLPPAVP

[2] = target: Histone deacetylase 3/Nuclear receptor corepressor 2 (HDAC3/NCoR2) (Homo sapiens, UniProt O15379); assay: Inhibition of C-terminal His-tagged recombinant human HDAC3 (1 to 428 residues)/N-terminal GST-tagged recombinant human NCoR2 (395 to 489 residues) co-expressed in baculovirus infected Sf9 cells measured after 30 mins by fluorescence microplate reader assay
Chain of Histone deacetylase 3/Nuclear receptor corepressor 2 (HDAC3/NCoR2) (O15379 whole entry, the tested form may be a part): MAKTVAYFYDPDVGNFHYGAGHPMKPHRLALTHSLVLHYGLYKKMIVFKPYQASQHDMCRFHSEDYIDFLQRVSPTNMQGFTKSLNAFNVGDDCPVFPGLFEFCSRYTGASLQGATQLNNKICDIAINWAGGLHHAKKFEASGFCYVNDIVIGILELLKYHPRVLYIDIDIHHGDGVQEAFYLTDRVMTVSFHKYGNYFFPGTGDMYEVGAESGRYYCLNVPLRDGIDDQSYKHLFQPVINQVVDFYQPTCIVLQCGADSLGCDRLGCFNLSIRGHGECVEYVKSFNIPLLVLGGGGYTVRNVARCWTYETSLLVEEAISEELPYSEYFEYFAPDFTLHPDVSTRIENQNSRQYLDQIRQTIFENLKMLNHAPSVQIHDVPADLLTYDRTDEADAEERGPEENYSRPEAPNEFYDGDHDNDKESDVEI
Chain of Histone deacetylase 3/Nuclear receptor corepressor 2 (HDAC3/NCoR2) (Q9Y618 whole entry, further chain, the tested form may be a part): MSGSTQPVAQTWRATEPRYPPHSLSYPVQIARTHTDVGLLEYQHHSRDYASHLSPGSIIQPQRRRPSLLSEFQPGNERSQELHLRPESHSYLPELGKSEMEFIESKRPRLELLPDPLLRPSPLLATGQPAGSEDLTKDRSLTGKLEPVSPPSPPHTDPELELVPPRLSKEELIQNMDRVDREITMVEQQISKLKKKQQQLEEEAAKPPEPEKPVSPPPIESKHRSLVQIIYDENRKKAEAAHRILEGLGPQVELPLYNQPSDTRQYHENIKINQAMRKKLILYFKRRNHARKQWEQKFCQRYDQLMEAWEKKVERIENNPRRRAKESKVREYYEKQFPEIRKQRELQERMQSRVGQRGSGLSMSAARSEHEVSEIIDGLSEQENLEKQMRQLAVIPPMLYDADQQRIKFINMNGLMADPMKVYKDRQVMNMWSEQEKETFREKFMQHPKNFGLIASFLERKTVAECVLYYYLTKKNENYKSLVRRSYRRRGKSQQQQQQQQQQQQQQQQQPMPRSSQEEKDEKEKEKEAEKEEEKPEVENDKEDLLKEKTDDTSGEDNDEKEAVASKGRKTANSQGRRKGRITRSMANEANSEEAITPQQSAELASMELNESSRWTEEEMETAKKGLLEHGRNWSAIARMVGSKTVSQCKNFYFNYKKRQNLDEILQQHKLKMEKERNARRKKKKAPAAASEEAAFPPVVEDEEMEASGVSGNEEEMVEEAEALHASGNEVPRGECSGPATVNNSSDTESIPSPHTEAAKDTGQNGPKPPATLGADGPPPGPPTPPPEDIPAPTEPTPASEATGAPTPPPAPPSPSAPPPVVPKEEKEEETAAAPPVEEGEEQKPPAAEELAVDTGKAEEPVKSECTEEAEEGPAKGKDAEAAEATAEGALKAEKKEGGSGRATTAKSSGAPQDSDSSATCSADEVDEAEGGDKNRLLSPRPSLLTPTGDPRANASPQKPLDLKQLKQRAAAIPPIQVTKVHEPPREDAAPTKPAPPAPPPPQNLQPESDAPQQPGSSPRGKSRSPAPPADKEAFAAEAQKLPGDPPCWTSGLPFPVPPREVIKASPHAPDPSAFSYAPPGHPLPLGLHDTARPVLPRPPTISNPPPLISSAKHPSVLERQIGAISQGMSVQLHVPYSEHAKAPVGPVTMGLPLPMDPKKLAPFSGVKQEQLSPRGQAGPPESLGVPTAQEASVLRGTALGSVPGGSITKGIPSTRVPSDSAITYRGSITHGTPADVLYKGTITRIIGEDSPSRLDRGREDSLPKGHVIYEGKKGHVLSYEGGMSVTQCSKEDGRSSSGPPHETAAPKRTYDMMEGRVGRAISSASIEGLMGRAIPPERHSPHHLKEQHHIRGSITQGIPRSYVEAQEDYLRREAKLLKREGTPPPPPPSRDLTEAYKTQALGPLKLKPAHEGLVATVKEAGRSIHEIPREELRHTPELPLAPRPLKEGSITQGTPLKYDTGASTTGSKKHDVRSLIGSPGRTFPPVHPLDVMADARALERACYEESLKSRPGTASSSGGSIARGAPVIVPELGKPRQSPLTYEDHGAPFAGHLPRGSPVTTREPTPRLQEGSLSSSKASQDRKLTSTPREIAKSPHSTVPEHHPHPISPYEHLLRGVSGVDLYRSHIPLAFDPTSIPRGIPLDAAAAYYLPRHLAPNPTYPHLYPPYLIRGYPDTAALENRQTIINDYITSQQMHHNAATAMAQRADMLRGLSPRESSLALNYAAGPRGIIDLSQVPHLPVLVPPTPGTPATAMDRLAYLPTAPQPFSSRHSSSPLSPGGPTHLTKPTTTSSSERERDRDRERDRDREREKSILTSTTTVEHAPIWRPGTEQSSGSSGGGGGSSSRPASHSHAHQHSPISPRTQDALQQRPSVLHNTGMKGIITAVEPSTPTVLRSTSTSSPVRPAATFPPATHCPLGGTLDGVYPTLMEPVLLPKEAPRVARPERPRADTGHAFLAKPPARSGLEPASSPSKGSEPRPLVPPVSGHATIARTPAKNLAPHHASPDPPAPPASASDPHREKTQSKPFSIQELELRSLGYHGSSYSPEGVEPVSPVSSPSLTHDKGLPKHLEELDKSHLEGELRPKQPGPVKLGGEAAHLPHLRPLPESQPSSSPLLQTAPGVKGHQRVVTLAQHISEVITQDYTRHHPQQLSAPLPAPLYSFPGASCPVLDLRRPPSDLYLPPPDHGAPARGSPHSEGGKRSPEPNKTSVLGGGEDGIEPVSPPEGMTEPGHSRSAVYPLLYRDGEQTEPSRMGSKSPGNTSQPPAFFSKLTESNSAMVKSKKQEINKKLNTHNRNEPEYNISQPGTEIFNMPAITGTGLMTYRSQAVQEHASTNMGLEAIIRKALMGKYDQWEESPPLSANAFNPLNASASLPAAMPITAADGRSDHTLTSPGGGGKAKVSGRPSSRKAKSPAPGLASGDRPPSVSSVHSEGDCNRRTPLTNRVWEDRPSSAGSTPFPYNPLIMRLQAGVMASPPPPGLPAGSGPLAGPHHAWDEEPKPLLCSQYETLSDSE

[3] = target: T2, Protein deacetylase HDAC6 (Homo sapiens, UniProt Q9UBN7); assay: Inhibition of recombiant human HDAC6 using fluorogenic HDAC substrate 3 measured after 30 mins by fluorescence microplate reader assay
T2 sequence (Q9UBN7 whole entry): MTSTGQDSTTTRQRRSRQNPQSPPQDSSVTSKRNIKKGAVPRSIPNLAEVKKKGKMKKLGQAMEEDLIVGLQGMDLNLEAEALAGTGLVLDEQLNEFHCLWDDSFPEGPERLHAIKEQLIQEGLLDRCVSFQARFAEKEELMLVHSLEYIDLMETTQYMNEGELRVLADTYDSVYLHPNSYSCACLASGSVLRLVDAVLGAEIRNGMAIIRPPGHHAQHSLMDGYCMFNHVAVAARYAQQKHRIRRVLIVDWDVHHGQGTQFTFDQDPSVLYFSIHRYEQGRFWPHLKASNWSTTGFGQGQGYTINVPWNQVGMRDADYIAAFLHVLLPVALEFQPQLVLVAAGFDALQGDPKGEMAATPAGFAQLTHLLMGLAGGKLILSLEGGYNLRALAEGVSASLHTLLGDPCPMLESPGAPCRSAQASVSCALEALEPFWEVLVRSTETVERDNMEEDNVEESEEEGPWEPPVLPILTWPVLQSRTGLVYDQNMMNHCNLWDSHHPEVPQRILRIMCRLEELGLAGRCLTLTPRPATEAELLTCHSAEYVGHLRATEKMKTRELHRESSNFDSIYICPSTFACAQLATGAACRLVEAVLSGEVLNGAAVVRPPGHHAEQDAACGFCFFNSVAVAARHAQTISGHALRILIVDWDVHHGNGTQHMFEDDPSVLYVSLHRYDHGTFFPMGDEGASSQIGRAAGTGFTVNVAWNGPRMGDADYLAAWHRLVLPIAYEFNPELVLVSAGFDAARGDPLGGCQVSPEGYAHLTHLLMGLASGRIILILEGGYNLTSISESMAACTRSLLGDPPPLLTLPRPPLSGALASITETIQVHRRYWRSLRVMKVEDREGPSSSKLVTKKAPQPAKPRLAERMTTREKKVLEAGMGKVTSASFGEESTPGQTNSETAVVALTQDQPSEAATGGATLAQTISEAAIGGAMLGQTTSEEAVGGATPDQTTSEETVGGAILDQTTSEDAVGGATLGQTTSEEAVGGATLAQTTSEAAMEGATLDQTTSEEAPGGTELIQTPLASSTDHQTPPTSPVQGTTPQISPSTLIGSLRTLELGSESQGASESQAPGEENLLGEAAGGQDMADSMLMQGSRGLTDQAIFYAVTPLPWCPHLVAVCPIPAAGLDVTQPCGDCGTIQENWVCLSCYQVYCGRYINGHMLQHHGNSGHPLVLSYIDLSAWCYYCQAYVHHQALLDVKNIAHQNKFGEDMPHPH

[4] = target: CDK4/Cyclin D3 (Homo sapiens, UniProt P11802); assay: Inhibition of full length human CDK4 (1 to 303 residues)/N-terminal GST-fusion tagged CyclinD3 (1 to 292 residues) expressed in baculovirus expression system preincubated for 10 mins followed by substrate and ATP addition by mobility shift assay
Chain of CDK4/Cyclin D3 (P11802 whole entry, the tested form may be a part): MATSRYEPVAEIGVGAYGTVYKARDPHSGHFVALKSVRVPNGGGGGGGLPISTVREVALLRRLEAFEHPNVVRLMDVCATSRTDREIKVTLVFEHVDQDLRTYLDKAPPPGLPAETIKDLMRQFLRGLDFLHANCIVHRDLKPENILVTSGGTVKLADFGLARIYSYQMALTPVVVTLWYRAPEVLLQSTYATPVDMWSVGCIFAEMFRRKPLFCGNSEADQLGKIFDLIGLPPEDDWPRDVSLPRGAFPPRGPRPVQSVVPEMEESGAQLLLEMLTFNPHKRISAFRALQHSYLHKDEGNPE
Chain of CDK4/Cyclin D3 (P30281 whole entry, further chain, the tested form may be a part): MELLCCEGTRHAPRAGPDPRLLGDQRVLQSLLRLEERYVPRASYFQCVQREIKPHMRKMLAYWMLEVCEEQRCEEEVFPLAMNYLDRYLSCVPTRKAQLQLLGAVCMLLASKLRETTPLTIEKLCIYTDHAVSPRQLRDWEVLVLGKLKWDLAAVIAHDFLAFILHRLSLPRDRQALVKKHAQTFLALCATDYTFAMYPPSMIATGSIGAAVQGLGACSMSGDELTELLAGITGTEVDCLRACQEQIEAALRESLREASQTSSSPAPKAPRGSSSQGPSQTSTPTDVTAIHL

[5] = target: CDK4/Cyclin D3 (Homo sapiens) (UniProt P11802+P30281); settings: dose 100.0 nM, time 10.0 min
[6] = tested on: HeLa; assay: Antiproliferative activity against human HeLa cells assessed as cell growth inhibition measured after 48 hrs by CCK8 assay; format: functional, cell-based
[7] = target: NAD-dependent protein deacylase sirtuin-5, mitochondrial (Homo sapiens, UniProt Q9NXA8); assay: Inhibition of recombinant human SIRT5 measured after 30 mins by fluorescence microplate reader assay
Chain of NAD-dependent protein deacylase sirtuin-5, mitochondrial (Q9NXA8 whole entry): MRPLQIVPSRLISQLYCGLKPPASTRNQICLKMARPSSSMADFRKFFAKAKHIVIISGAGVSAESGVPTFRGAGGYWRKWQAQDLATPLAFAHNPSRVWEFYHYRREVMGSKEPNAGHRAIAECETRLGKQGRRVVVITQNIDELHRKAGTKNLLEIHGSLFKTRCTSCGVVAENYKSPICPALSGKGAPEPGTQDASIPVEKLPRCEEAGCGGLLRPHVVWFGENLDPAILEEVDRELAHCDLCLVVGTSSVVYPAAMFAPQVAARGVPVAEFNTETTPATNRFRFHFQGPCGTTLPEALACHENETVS

[8] = tested on: K562; assay: Induction of apoptosis in human K562 cells assessed as increase in sum of early and late apoptotic cells at 2.5 to 10 uM measured after 48 hrs by Annexin-V/FITC-propidium iodide staining based flow cytometry analysis; format: functional, cell-based; settings: dose 2.5-10 µM
[9] = tested on: A549; assay: Antiproliferative activity against human A549 cells assessed as cell growth inhibition measured after 48 hrs by CCK8 assay; format: functional, cell-based; settings: A549, 48 h
[10] = tested on: A549; assay: Antitumor activity against human A549 cells xenografted in BALB/c nude mouse assessed as reduction in tumor volume at 0.75 to 1.5 mg, IT (intratumoral) administered for 21 consecutive days; format: functional, cell-based; settings: dose 0.75-1.5 mg, time 21.0 day
[11] = target: NAD-dependent protein deacetylase sirtuin-2 (Homo sapiens, UniProt Q8IXJ6); assay: Inhibition of recombinant human SIRT2 measured after 30 mins by fluorescence microplate reader assay
[12] = target: Histone deacetylase 5 (Homo sapiens, UniProt Q9UQL6); assay: Inhibition of HDAC5 (unknown origin) measured after 30 mins by fluorescence microplate reader assay
Chain of Histone deacetylase 5 (Q9UQL6 whole entry): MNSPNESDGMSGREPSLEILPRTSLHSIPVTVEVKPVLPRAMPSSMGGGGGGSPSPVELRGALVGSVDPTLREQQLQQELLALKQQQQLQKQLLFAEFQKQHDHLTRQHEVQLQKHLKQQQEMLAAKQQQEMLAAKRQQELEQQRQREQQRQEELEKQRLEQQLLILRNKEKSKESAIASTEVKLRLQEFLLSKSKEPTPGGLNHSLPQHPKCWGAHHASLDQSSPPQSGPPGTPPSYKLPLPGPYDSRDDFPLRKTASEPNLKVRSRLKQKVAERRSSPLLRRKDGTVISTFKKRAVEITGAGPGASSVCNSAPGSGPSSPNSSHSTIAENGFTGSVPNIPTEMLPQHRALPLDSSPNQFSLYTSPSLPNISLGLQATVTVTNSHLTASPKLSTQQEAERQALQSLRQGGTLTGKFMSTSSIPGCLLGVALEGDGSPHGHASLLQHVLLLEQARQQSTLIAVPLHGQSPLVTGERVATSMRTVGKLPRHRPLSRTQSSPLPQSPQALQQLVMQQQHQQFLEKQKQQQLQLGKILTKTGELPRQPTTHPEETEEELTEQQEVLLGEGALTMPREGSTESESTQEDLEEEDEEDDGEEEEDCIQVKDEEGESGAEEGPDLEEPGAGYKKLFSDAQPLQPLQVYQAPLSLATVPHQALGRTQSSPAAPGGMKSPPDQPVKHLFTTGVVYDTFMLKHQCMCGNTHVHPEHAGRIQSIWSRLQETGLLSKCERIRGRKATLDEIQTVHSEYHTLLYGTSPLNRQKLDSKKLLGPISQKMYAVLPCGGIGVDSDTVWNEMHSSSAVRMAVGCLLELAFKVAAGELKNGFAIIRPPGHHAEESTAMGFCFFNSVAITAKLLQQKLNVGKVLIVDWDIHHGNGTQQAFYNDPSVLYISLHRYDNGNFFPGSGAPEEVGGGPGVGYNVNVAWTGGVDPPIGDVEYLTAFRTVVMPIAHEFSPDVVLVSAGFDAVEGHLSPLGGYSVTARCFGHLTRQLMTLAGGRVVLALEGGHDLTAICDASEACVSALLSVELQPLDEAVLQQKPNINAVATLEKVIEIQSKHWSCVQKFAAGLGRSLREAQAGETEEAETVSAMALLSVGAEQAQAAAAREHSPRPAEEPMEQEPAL

[13] = target: Histone deacetylase 9 (Homo sapiens, UniProt Q9UKV0); assay: Inhibition of recombinant human HDAC9 measured after 30 mins by fluorescence microplate reader assay
[14] = tested on: K562; assay: Antiproliferative activity against human K562 cells assessed as cell growth inhibition measured after 48 hrs by CCK8 assay; format: functional, cell-based; settings: K562, 48 h
[15] = tested on: HepG2; assay: Antiproliferative activity against human HepG2 cells assessed as cell growth inhibition measured after 48 hrs by CCK8 assay; format: functional, cell-based; settings: HepG2, 48 h
[16] = target: T3, Protein deacetylase HDAC6 (Homo sapiens) (UniProt Q9UBN7); assay: Inhibition of HDAC6 in human MCF7 cells assessed as accumulation of acetylation of H3 at 1 to 10 uM measured after 48 hrs by Western blot analysis; format: cell-based; settings: dose 1-10 µM
T3 sequence (whole entry): T2 sequence (Q9UBN7 whole entry)

[17] = tested on: A549; assay: Antitumor activity against human A549 cells xenografted in BALB/c nude mouse assessed as tumor growth inhibition at 0.75 to 1.5 mg, IT (intratumoral) administered for 21 consecutive days relative to control; format: functional; settings: dose 0.75-1.5 mg, time 21 day
[18] = tested on: A549; assay: Cycle arrest in human A549 cells assessed as increase in cell population at S phase measured after 24 hrs by propidium iodide/RNase staining based flow cytometry; format: functional; settings: dose 2.5-10 µM

| IC50 [1] [µM] | IC50 [2] [µM] | IC50 [3] [µM] | Compound | IC50 [4] [µM] | inhibition [5] [%] | IC50 [6] [µM] | IC50 [7] [µM] | Activity [8] | IC50 [9] [µM] | Activity [10] | IC50 [11] [µM] | IC50 [12] [µM] | IC50 [13] [µM] | IC50 [14] [µM] | IC50 [15] [µM] | inhibition [16] | TGI [17] [%] | Activity [18] |
| --- | --- | --- | --- | --- | --- | --- | --- | --- | --- | --- | --- | --- | --- | --- | --- | --- | --- | --- |
| > 5 | > 100 | 1.87 | C#CCN1C(=O)/C(=C2\Nc3ccccc3\C2=N/OCCCC(=O)NO)c2ccccc21 | > 1 | 3.9 |  |  |  |  |  |  |  |  |  |  |  |  |  |
| > 5 | > 5 | > 5 | O=C(O)CCCO/N=C1/C(=C2/C(=O)Nc3ccccc32)Nc2ccccc21 |  |  | > 10 | > 100 |  | > 10 |  | > 100 | > 5 | > 5 | > 10 | > 10 |  |  |  |

| Compound | IC50 [1] [µM] | IC50 [2] [µM] | IC50 [3] [µM] | IC50 [4] [µM] | inhibition [5] [%] | IC50 [6] [µM] | IC50 [7] [µM] | Activity [8] | IC50 [9] [µM] | Activity [10] | IC50 [11] [µM] | IC50 [12] [µM] | IC50 [13] [µM] | IC50 [14] [µM] | IC50 [15] [µM] | inhibition [16] | TGI [17] [%] | Activity [18] |
| --- | --- | --- | --- | --- | --- | --- | --- | --- | --- | --- | --- | --- | --- | --- | --- | --- | --- | --- |
| O=C(CCCO/N=C1/C(=C2/C(=O)Nc3ccccc32)Nc2ccccc21)NO | > 5 | > 5 | 0.129 | 0.276 | 30.2 | 0.8 | > 100 | Active | 2 | Active | > 100 | > 5 | > 5 | 2.5 | 5.7 | inactive | 67.1 | Dose-Dependent Effect |
